# Test results as given in patent US5726156A, “Cytokine regulatory agents and methods of use in pathologies and conditions associated with altered cytokine levels” (Trega Biosciences, Inc., priority 1995, dated 1998).
# Tests used:
# [1] = tested on: LPS-induced PMN infiltration in lungs; experiment: Adult respiratory distress syndrome: LPS-induced PMN count in broncho-alveolar lavage; format: in vivo, rats; conditions: 100 μg/kg IP; broncho-alveolar lavage 6 hr after intratracheal LPS
# Method: These experiments were performed using a modification of the methods described by Ulich et al., Am. J. Pathol. 141:61-68 (1992) and by Wheelden et al., Lab. Animals 26:29-37 (1992), each of which is incorporated herein by reference. Male Harlan Sprague-Dawley rats were anesthetized using a mixture of 70 mg/kg ketamine and 6 mg/kg rompun injected IP. A 2-3 cm incision was made in the neck of each anesthetized rat and its trachea was exposed by blunt dissection of the surrounding soft tissue. The rats were suspended on a near vertical slab and intratracheal injections were performed by inserting into the exposed trachea, at a point 1 cm posterior to the larynx, a 25G×1/2 inch needle attached to a 1 cc syringe.
# Each rat received 0.5 ml/kg of saline or 0.5 ml/kg of 10 mg/ml (5 mg/kg) LPS endotoxin via slow intratracheal administration. Immediately following administration of the LPS endotoxin, rats were injected IP with 1 ml/kg of either saline (control) or saline containing various concentrations of EX-2 (treated). The rats were maintained in the elevated position for 1-2 min to facilitate distribution of the LPS and saline into the lung. The incisions were closed and the rats were allowed to recover. […]
# The total polymorphonuclear leukocytes (PMN; neutrophits) in the broncho-alveolar lavage fluid were counted in the EX-2-treated rats and compared with the number in the control rats.
# [2] = tested on: disuse deconditioning; experiment: Disuse deconditioning (tail suspension) in rats; format: in vivo; conditions: 1 or 5 μg/kg IP twice daily
# Method: Adult male Sprague-Dawley rats (355-365 g) were used in this study. Animals were housed individually in standard rat cages and were acclimated on a treadmill for 4 days. The next day, a baseline tail bleed was performed, followed by a maximal treadmill stress test the day after. The day following the stress test, the animals were divided into the appropriate treatment and control groups and the animals were suspended by their tails in suspension cages, which simulates weightlessness and, therefore, deconditions the animals. Another group of control animals was placed in standard rat cages with grated flooring similar to that utilized in the suspension cages. All animals were housed one per cage and supplied with food and water ad libitum. Body weights and food consumptions were measured daily. Animals received twice daily IP injections of 1 μg/kg or 5 μg/kg body weight of EX-2 (treated), or 1 ml/kg body weight of saline (control). On day 10, all animals were stress tested on the treadmill until they reached exhaustion. Data on maximum VO2 and running time were collected and compared to pre-suspension results. On day 14, all animals were sacrificed, and blood, tissues, and organs were collected for further analysis. All procedures and tests were performed blind to avoid researcher subjectivity. Statistical significance (p<0.05) between groups was evaluated by ANOVA with Student-Newman-Keuls test for multiple comparisons. All data are reported as the mean ± standard error (SE).
# All of the animals were subjected to the stress tests, which measured exercise time and maximal VO2. As well, levels of the oxidative enzyme soleus citrate synthase and tibia bone density were measured.
# Soleus citrate synthase was attenuated by 50%.
# [3] = tested on: kidney (cisplatin nephrotoxicity); experiment: Cisplatin (CDDP) nephrotoxicity, renal function; format: in vivo, rats
# Method: Male Sprague-Dawley were used to determine the effect of EX-2 on renal function after cisplatin (CDDP) administration. All rats were administered CDDP (4 mg/kg IP) and divided in 3 treatment groups (n=6/group). The groups were as follows: (1) Administration with vehicle and sterile PBS 3×/day; (2) Administration of EX-2 at a dose of 5 μg/kg, 3×/day; and (3) same as group 2 except the dose of EX-2 was 50 μg/kg, 3×/day. An infusion of ^3 H-inulin (0.6 μCi/ml in PBS) (2 ml/hr) was initiated at the end of the surgical preparation period. The continuous infusion was started 60 min prior to the renal function measurements and maintained to the end of the study. Glomerular filtration was assessed by inulin clearance techniques in two 30 min periods and renal blood flow (RBF) and renal plasma flow (RPF) were measured by inulin extraction techniques (arterial vs. renal vein inulin concentration) from left kidney renal vein blood sampled at the end of the second GFR measurement period. Urinary output was also monitored to determine both urine flow and fractional excretion of water. Urinary electrolyte (Na^+ and K^+) concentrations were analyzed by flame photometry (Model 51 Ca, Bacharch, inc.; Pittsburgh, Pa.) and urinary protein concentrations were determined. At the end of the measurement periods, the kidneys were removed for histological analysis.
# [4] = tested on: glomerulonephritis; experiment: Glomerulonephritis (nephrotoxic serum), albuminuria; format: in vivo, rats; conditions: 100 μg/kg per injection, 3 times per day
# Method: Male Sprague-Dawley rats (weight 194-248 g) were immunized by subcutaneous injection of 1 mg normal rabbit IgG (Sigma Chemical Co.) in Freund's complete adjuvant (Sigma Chemical Co.). EX-2 was administered 3 times per day (100 μg/kg per injection) throughout the duration of the experiment. Seven days later, the rats were injected with 1.5 ml of nephrotoxic serum iv via dorsal penile vein. Urine, plasma, and serum were collected before injection of nephrotoxic serum at 4, 6, 24, 48, and 96 hr thereafter. […] Albuminuria was quantified by immunoelectrophoresis.
# [5] = suspended rats, stress test day 10
# [6] = CDDP 4 mg/kg IP + 5 μg/kg EX-2 3×/day
# [7] = CDDP 4 mg/kg IP + 50 μg/kg EX-2 3×/day
substance,measurement,setting,value
Ac-Nle-Gln-His-(D)Phe-Arg-(D)Trp-Gly-NH2 [EX-2],Reduction in LPS-induced PMN Count,[1],58%
same,"% Attenuation of suspension-induced decrease, Soleus Citrate Synthase",[2]; 14 days suspension,50%
same,"% Attenuation of suspension-induced decrease, Tibia Bone Density",[2]; 14 days suspension,50%
same,"% Attenuation of suspension-induced decrease, Exercise Time",[2]; [5],44%
same,"% Attenuation of suspension-induced decrease, Maximal VO2",[2]; [5],80%
same,GFR,[3]; [6],0.8 ± 0.2
same,RBF,[3]; [6],12.1 ± 2.0
same,RPF,[3]; [6],6.5 ± 1.0 ml/mm
same,GFR,[3]; [7],1.6 ± 0.4
same,RBF,[3]; [7],16.8 ± 2.2
same,RPF,[3]; [7],8.8 ± 1.1 ml/mm
same,"% Reduction, Glomerulonephritis, Urine Albumin (mg/day)",[4],62%
